Measurements reported in patent publication US4513008A, “Virucidal compositions and therapy” (The Vinoxen Company, Inc., priority 1982, dated 1985).
In brackets after ≈: the same amount, converted by molar mass.

Test system: herpes simplex virus type 2 (HSV-2)
Experiment: In vitro HSV-2 bioassay: virucidal plaque assay (HEP-2 cells)
Type: cell-based, HSV-2 strain 333
Conditions: for plaque count / titer: Table 3
Procedure: Evidence of the efficacy of the virucides of the invention in vitro has been obtained from bioassay using HSV-2, using a standard assay procedure. Serial dilutions of the compounds were tested for their ability to prevent plaque formation by a stock virus suspension. Reduction of plaque titer by test compounds as compared to mock treated controls was indicative of virucidal activity. […] These represent the upper limit for the drug concentration, since dilutions were not carried beyond 1:6400 and in some cases 1:12800.
Cell Culture. Cell cultures used for the propagation and titration of HSV-2 were the human diploid lung embryonic line MRC-5 and the human malignant epitheloid cell line HEP-2 respectively. Stock monolayer cultures of both cell lines were propagated in Dulbecco's Modified Eagle's medium (DME) supplemented with 10% (V/V) calf serum. Spinner cultures for mass production of HEP-2 cells were grown in Joklik's medium supplemented with 10% (V/V) calf serum and 1% (W/V) pluronic acid. Monolayer cultures of HEP-2 cells for plaque or virucidal assay were seeded into 60 mm dishes in DME supplemented with 10% calf serum and antibiotics. Stock cultures were maintained in antibiotic free medium.
Herpes simplex virus, type 2 (HSV-2) strain 333 was obtained from Dr. John Hughes of the Dept. of Medical Microbiology, College of Medicine, The Ohio State University. Stocks of HSV-2 were prepared in the human diploid embryonic lung cell line, MRC-5. Confluent MRC-5 monolayer cultures in T-75 plastic flasks were washed one time with Hank's and Balanced Salt solution (HBSS) and infected with 0.5 ml of HSV-2, strain 333 stock. Virus was adsorbed for 1 hour at 37° C. Then the culture was refed with 15 ml of DME supplemented with 1% (V/V) calf serum. Virus was harvested 48 hours later when cytopathology was complete. Cultures were frozen and thawed rapidly three times to release cell associated virus, clarified by centrifugation at 10,000×g for 15 minutes at 4° C., aliquoted into 5 ml lots and frozen at -70° C. One lot was taken for virus titration.
HSV-2 was titrated by plaque assay in HEP-2 cells under a semi-solid methyl cellulose overlay. Tenfold serial dilutions of virus were prepared in HBSS and 0.3 ml aliquots of each dilution inoculated onto triplicate HEP-2 cell monolayers in 60 mm plastic petri dishes. Adsorption of virus was for 1 hour at 37° C. Plates were then overlayed with 5 ml of a 1:1 mixture of 2×DME supplemented with 2% (V/V) calf serum and 3% (W/V) methyl cellulose to give a final 1×DME supplemented with 1% calf serum and 1.5% methylcellulose. Infected plates were incubated at 37° C. in a humidified 10% CO2 atmosphere for 48 hours. Virus plaques were visualized by staining with crystal violet and counted under a dissecting microscope. Virus titers were calculated from the plaque numbers by averaging the plaque count and multiplying by 3.3 (0.3 ml plates).
The following procedure was employed to assay virucidal activity in various test samples. Compounds were received as a solution in DMSO and were serially diluted in HBSS as described for each experiment. For the test, 1 ml of each dilution was mixed with 1 ml of a stock virus suspension diluted to approximately 9×10^3 plaque forming units (P.F.U.)/ml. This test mixture was incubated at 25° C. for 30 minutes, then inoculated onto a cell culture (HEP-2) for plaque assay as described previously. Mock treated (virus plus HBSS) controls were included with each test. Any reduction of plaque titer by test compounds as compared to the mock treated control was indicative of virucidal activity.
Samples from RP-HPLC fractionation of the CLOH, produced according to Example 2, as well as purified samples of palmitic, myristic and oleic acids and Vitamin D2, were tested for HSV-2 bioactivity. […] Pure oleic acid was not active in this assay, nor were palmitic and myristic acids and Vitamin D2. […]

CCC=CCC=CCC=CCC=CCC=CCC=CCCC(=O)O [DHA, 4,7,10,13,16,19 Docosahexaenoic Acid]
MIC (Human alphaherpesvirus 2, 0.5 h, Table 4 run, 30 min at 25° C., upper limit, dilutions to 1:12800, read-out: MIC (lowest concentration producing a 3-log reduction in virus titer)): 0.47 µg/mL (≈ 1.43 µM) | plaque count (dilution 1:10): 0 | titer (dilution 1:10, control titer 4.5 × 10^3): 0 | plaque count (dilution 1:100): 0 | titer (dilution 1:100): 0 | titer (dilution 1:400): 0 | plaque count (dilution 1:400, TNTC = too numerous to count): 0 | titer (dilution 1:800): 0 | plaque count (dilution 1:800, TNTC = too numerous to count): 0 | titer (dilution 1:1600): 0 | plaque count (dilution 1:1600, TNTC = too numerous to count): 0 | titer (dilution 1:3200): 0 | plaque count (dilution 1:3200, TNTC = too numerous to count): 0 | titer (dilution 1:6400): 0 | plaque count (dilution 1:6400, TNTC = too numerous to count): 0 | titer (dilution 1:12800): 0 | plaque count (dilution 1:12800, TNTC = too numerous to count): 0 | virucidal activity against HSV-2 in words (in vitro bioassay): potent and fast-acting virucides
